The assay relates to slow wave oscillations in the scalp electroencephalogram.

The text below walks through data of patent US12114987B2, “Perception loss detection” (OXFORD UNIVERSITY INNOVATION LIMITED, priority 2012, dated 2024).

Description: Multiple electrodes, including Magnetic Resonance (hereinafter “MR”) compatible 32 channel electroencephalography (hereinafter “EEG”) caps (BrainCap MR, Easycap GmbH, Herrsching, Germany) are used in the illustrated example for EEG acquisition.
Amplifiers are connected in the illustrated example using MR-safe fibre optic cables to a universal serial bus (USB) adaptor and then to a laptop computer (or other recording and EEG processing medium), which includes the processor 18 and the database 19. The laptop simultaneously records the timings of fMRI volumes (gradient onset markers), stimuli and button presses. For the paradigm in FIG. 5, samples of the electrical signals are acquired at 5000 Hz and initially referenced to channel CPz. The amplification hardware imposes a highpass filter of 0.1 Hz and a lowpass filter of 250 Hz on acquisition. The acquisition software applies a highpass filter of 0.5 Hz and a lowpass filter of 70 Hz as well as a notch filter of 50 Hz. […]
For time-frequency analysis, the frequency power spectrum over time within the 0.5-30 Hz range is calculated using a multitaper spectral analysis (using Chronux®) with window size=3 s and step size=4s. Phasic changes in EEG absolute and relative power in the specific frequency bands of interest, i.e. beta (15-30 Hz), alpha (9-14 Hz), theta (4-8 Hz) and slow wave (0.5-1.5 Hz) bands, are calculated. […]

Regarding `CC(C)c1cccc(C(C)C)c1O` [propofol], the “peak absolute power of slow wave oscillations (0.5-1.5 Hz band), range between subjects” value (16 subjects, gradual propofol administration, peak propofol level 4.0 mcg ml−1, scalp EEG) is recorded as 10.84-83.78 μV2. Also, for the setting “after the human has lost verbal responsiveness, increasing doses of propofol”, the “activity of slow wave oscillations in the scalp electroencephalogram with increasing doses” value is “reaches a maximum or saturation point”.
